Test systems include A549 NSCLC; BT-549 breast; EKVX NSCLC; HCT-15 colon; HS 578T breast; MOLT-4 leukemia; RPMI-8226 leukemia; SN12C renal; SNB-75 CNS.
Test in all cases: inhibition of tumour cell growth, NCI panel, 48 h

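48-hour exposure; five concentrations; linearly interpolated endpoints. TGI marks complete inhibition of growth.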

For the molecule `CC1=CCC(=O)[C@]2(C)C(CC(=O)O)[C@]3(C)C4=C(C)C(c5ccoc5)C[C@@H]4O[C@@H]3[C@H](O)[C@@H]12` (stereo partly drawn), the TGI with A549 NSCLC, in the test with BT-549 breast, in the test on EKVX NSCLC, with HCT-15 colon, in the test with HS 578T breast and in the test on MOLT-4 leukemia was greater than 100 µM in each case. Besides, the TGI in the test with RPMI-8226 leukemia, in the test with SN12C renal and in the test with SNB-75 CNS was greater than 100 µM each time.
For `O=C1CSC(c2cc3cc(Br)ccc3nc2Cl)N1c1ccc(F)c(Cl)c1` (stereo not drawn), the TGI in the test on A549 NSCLC is greater than 50 µM; in the test with BT-549 breast it was greater than 50 µM; with EKVX NSCLC, greater than 50 µM; in the test with HCT-15 colon, greater than 50 µM; in the test with HS 578T breast, greater than 50 µM; in the test on MOLT-4 leukemia, 32.9 µM. For the same molecule, the TGI with RPMI-8226 leukemia, with SN12C renal and in the test with SNB-75 CNS was greater than 50 µM throughout.
Turning to `Oc1[nH]c2ccccc2c1N=NC(=S)NCc1ccccn1`, the TGI in the test with A549 NSCLC is 13.7 µM; in the test on BT-549 breast, 17.5 µM; in the test on EKVX NSCLC, 12.5 µM; in the test on HCT-15 colon, 33.2 µM; in the test with HS 578T breast it was 47.7 µM; in the test with MOLT-4 leukemia it was 4.9 µM. In addition, the TGI amounted to 53.9 µM in the test on RPMI-8226 leukemia, 14.5 µM with SN12C renal and 6.6 µM in the test on SNB-75 CNS.
For the molecule `NC(=O)c1ccc(S(=O)(=NS(=O)(=O)c2ccccc2)c2ccc(C(N)=O)cc2)cc1`, the TGI in the test on A549 NSCLC, with BT-549 breast, in the test on EKVX NSCLC, with HCT-15 colon, in the test with HS 578T breast and in the test on MOLT-4 leukemia was greater than 100 µM each time. Besides, the TGI in the test on RPMI-8226 leukemia, in the test on SN12C renal and with SNB-75 CNS was greater than 100 µM throughout.
`NC(=O)c1nnc2c(F)cccc2c1N`: the TGI in the test with A549 NSCLC, in the test on BT-549 breast, in the test with EKVX NSCLC, in the test on HCT-15 colon, with HS 578T breast and with MOLT-4 leukemia was greater than 100 µM throughout. The TGI in the test with RPMI-8226 leukemia, with SN12C renal and in the test on SNB-75 CNS was greater than 100 µM in each case.
On to `COc1cc(C)c(S(=O)(=O)N(CCCN)OCCCN)c(C)c1C`, for which the TGI with A549 NSCLC is greater than 100 µM; in the test on BT-549 breast, 66.5 µM; with EKVX NSCLC, greater than 100 µM; with HCT-15 colon, greater than 100 µM; in the test on HS 578T breast it was 65.2 µM; with MOLT-4 leukemia, 31.4 µM. Further, the TGI is 49 µM in the test on RPMI-8226 leukemia, greater than 100 µM in the test with SN12C renal and greater than 100 µM with SNB-75 CNS.
For the molecule `CC(C)(CO)Nc1c(O)c2c(c(O)c1Cl)C(=O)C=CC2=O`, the TGI in the test on A549 NSCLC was 3.61 µM; in the test on BT-549 breast it was 2.24 µM; in the test with EKVX NSCLC, 3.82 µM; with HCT-15 colon it was 2.22 µM; in the test on HS 578T breast it was 3.41 µM; in the test on MOLT-4 leukemia, 3.3 µM. The TGI amounted to 4.82 µM in the test with RPMI-8226 leukemia, 2.91 µM in the test on SN12C renal and 2.6 µM in the test on SNB-75 CNS.
As for `c1ccc2c(c1)[C@@H]1O[C@@H]1[C@@]13O[C@@]21[C@H]1O[C@H]1c1ccccc13`, the TGI in the test on A549 NSCLC was 47 µM; in the test with BT-549 breast, 30.3 µM; in the test on EKVX NSCLC, 31.9 µM; in the test with HCT-15 colon, 48.8 µM; in the test with HS 578T breast it was 28.3 µM; in the test with MOLT-4 leukemia it was greater than 100 µM. Also, the TGI worked out at 33.7 µM in the test on RPMI-8226 leukemia, 38.2 µM in the test on SN12C renal and 27.2 µM with SNB-75 CNS.
For `Cc1nc(C)c(C(=O)NNC(=O)c2ccccc2)cc1C(=O)NNC(=O)c1ccccc1`, the TGI in the test with A549 NSCLC was greater than 100 µM; with BT-549 breast, greater than 100 µM; in the test on EKVX NSCLC it was greater than 10 µM; in the test on HCT-15 colon, greater than 100 µM; in the test with HS 578T breast, greater than 100 µM; in the test with MOLT-4 leukemia, greater than 100 µM. The TGI with RPMI-8226 leukemia is greater than 100 µM; in the test on SN12C renal, greater than 100 µM; in the test on SNB-75 CNS, greater than 10 µM.
`Cc1cc(S(=O)(=O)Nc2n[nH]c(N)n2)c(S)cc1Cl`: the TGI with A549 NSCLC, in the test on BT-549 breast, in the test on EKVX NSCLC, in the test on HCT-15 colon, with HS 578T breast and in the test on MOLT-4 leukemia was greater than 10 µM throughout. Further, the TGI in the test on RPMI-8226 leukemia, with SN12C renal and in the test on SNB-75 CNS was greater than 10 µM throughout.
As to `CN1CCN(C2CC(=O)c3c(Cl)sc(Cl)c32)CC1` (stereo not drawn), the TGI in the test on A549 NSCLC is greater than 52.9 µM; with BT-549 breast, greater than 52.2 µM; with EKVX NSCLC, greater than 55.5 µM; in the test with HCT-15 colon it was greater than 31.6 µM; with HS 578T breast, greater than 23.7 µM; with MOLT-4 leukemia it was greater than 51.9 µM. In addition, the TGI stood at 15.5 µM in the test with RPMI-8226 leukemia, 30 µM in the test on SN12C renal and 41.5 µM in the test on SNB-75 CNS.
For the molecule `CCOC(=O)/C=C/C(Br)=C(Br)/C=C/C(=O)OCC`, the TGI in the test on A549 NSCLC is 56 µM; in the test with BT-549 breast, 12.4 µM; in the test with EKVX NSCLC it was 36.2 µM; with HCT-15 colon, 10.7 µM; in the test on HS 578T breast, greater than 76.2 µM; with MOLT-4 leukemia, 5.93 µM. Also, the results for the TGI in the test with RPMI-8226 leukemia, with SN12C renal and in the test with SNB-75 CNS were 15.6 µM, 25.9 µM and 26 µM, respectively.
Regarding `C/C(=N/NC(=O)c1ccccc1Nc1ccccc1C(=O)N/N=C(\C)c1ccc(C)cc1)c1ccc(C)cc1`, the TGI with A549 NSCLC, in the test on BT-549 breast, in the test with EKVX NSCLC, in the test with HCT-15 colon, with HS 578T breast and in the test with MOLT-4 leukemia was greater than 100 µM in each case. Moreover, the TGI in the test with RPMI-8226 leukemia, with SN12C renal and in the test on SNB-75 CNS was greater than 100 µM throughout.
Regarding `Nc1nc(Cl)cc(NCC2CC(O)(CO)C2)n1` (stereo not drawn), the TGI with A549 NSCLC, in the test with BT-549 breast, in the test with EKVX NSCLC, with HCT-15 colon, in the test on HS 578T breast and with MOLT-4 leukemia was greater than 100 µM in each case. Besides, the TGI in the test with RPMI-8226 leukemia, in the test on SN12C renal and with SNB-75 CNS was greater than 100 µM in each case.
For `CC(=O)OCC12C(OC(C)=O)C[C@@H](C)C3(CC(c4ccoc4)OC3=O)C1CCC(OC(C)=O)C21CO1` (stereo partly drawn), the TGI in the test with A549 NSCLC, in the test with BT-549 breast, in the test with EKVX NSCLC, in the test with HCT-15 colon, in the test on HS 578T breast and in the test with MOLT-4 leukemia was greater than 100 µM throughout. In addition, the TGI in the test with RPMI-8226 leukemia, with SN12C renal and with SNB-75 CNS was greater than 100 µM each time.
As for `CC(=O)c1c2c(cc3c1CCC3)CCC2`, the TGI in the test on A549 NSCLC, in the test with BT-549 breast, in the test with EKVX NSCLC, in the test with HCT-15 colon, in the test with HS 578T breast and in the test with MOLT-4 leukemia was greater than 100 µM in each case. Also, the TGI in the test on RPMI-8226 leukemia, in the test on SN12C renal and in the test on SNB-75 CNS was greater than 100 µM in each case.
For `COC1OC(=O)C(OC)C(OC)C1OC` (stereo not drawn), the TGI with A549 NSCLC, in the test on BT-549 breast, in the test on EKVX NSCLC, in the test on HCT-15 colon, in the test on HS 578T breast and with MOLT-4 leukemia was greater than 100 µM in each case. Besides, the TGI with RPMI-8226 leukemia, in the test on SN12C renal and with SNB-75 CNS was greater than 100 µM in each case.
Regarding `CC(C)(C)C1=CC(O)(c2c3ccccc3c(C3(O)C=C(C(C)(C)C)C(=O)C(C(C)(C)C)=C3)c3ccccc23)C=C(C(C)(C)C)C1=O`, the TGI with A549 NSCLC, in the test on BT-549 breast, in the test on EKVX NSCLC, in the test with HCT-15 colon, in the test on HS 578T breast and with MOLT-4 leukemia was greater than 100 µM each time. Further, the TGI in the test with RPMI-8226 leukemia, in the test on SN12C renal and in the test with SNB-75 CNS was greater than 100 µM each time.
In the case of `O=C1CCc2c(sc3ncnc(Nc4cccc(Br)c4)c23)C1`, the TGI in the test on A549 NSCLC is 24.5 µM; in the test with BT-549 breast it was 13.9 µM; in the test on EKVX NSCLC it was 12.4 µM; with HCT-15 colon it was 12.4 µM; in the test with HS 578T breast, greater than 79.8 µM; in the test on MOLT-4 leukemia, greater than 27 µM. For the same molecule, the TGI in the test with RPMI-8226 leukemia is greater than 20.3 µM; in the test with SN12C renal it was 12.7 µM; in the test with SNB-75 CNS it was 12.5 µM.
Take `CCOC(=O)CCC1(C(=O)O[C@@H]2C[C@H](C)CC[C@H]2C(C)C)CCCCC1=O` (stereo partly drawn): the TGI in the test on A549 NSCLC, in the test on BT-549 breast, with EKVX NSCLC, in the test with HCT-15 colon, in the test with HS 578T breast and with MOLT-4 leukemia was greater than 100 µM each time. The TGI in the test on RPMI-8226 leukemia, with SN12C renal and with SNB-75 CNS was greater than 100 µM in each case.
For `CC1=NNC(N)=N/C1=C\C(Sc1ccc(Cl)cc1)c1ccc(Cl)cc1Cl` (stereo not drawn), the TGI in the test with A549 NSCLC was 59.4 µM; in the test on BT-549 breast, 55.7 µM; in the test with EKVX NSCLC, 32.7 µM; with HCT-15 colon, 30.4 µM; in the test on HS 578T breast, 44.2 µM; in the test with MOLT-4 leukemia, greater than 100 µM. Moreover, the TGI turned out to be 61.2 µM in the test on RPMI-8226 leukemia, 62.4 µM in the test on SN12C renal and 32.9 µM in the test with SNB-75 CNS.
In the case of `CCOC(=O)C1=C(C)N(c2ccc(Cl)cc2)C2(O)C=CC(=O)C3C(=O)N(c4ccccc4)C(=O)C132` (stereo not drawn), the TGI with A549 NSCLC stood at 10.5 µM; with BT-549 breast, 5.8 µM; in the test with EKVX NSCLC, 4.38 µM; with HCT-15 colon it was 4.37 µM; in the test with HS 578T breast, 12.8 µM; in the test with MOLT-4 leukemia, 3.72 µM. Moreover, the TGI in the test with RPMI-8226 leukemia is 3.77 µM; in the test on SN12C renal, 5.28 µM; in the test with SNB-75 CNS, 3.25 µM.

Values taken from PubChem BioAssay (NCI).
